# Test results reported in ChEMBL document CHEMBL1157784, “Antitumor activity and COMPARE analysis of bis-indole derivatives” (Bioorg Med Chem, 2010).
# Where a name gives a salt, the structure may show the parent alone.
# Assays:
# Format in all cases: functional
# [1] = Growth inhibition of human renal cancer cell by NCI-CLS assay; details: Cancer cell lines; for CC50: read-out: LC50 (the source's name)
# [2] = tested on: NSCLC; assay: Growth inhibition of human NSCLC cell by NCI-CLS assay
# [3] = Growth inhibition of human melanoma cell by NCI-CLS assay; details: for CC50: read-out: LC50 (the source's name)
# [4] = Growth inhibition of human breast cancer cell by NCI-CLS assay; details: Cancer cell lines; for CC50: read-out: LC50 (the source's name)
# [5] = Growth inhibition of human prostate cancer cell by NCI-CLS assay; details: Cancer cell lines; for CC50: read-out: LC50 (the source's name)
# [6] = Growth inhibition of human CNS cancer cell by NCI-CLS assay; details: Cancer cell lines; for CC50: read-out: LC50 (the source's name)
# [7] = Growth inhibition of human colon cancer cell by NCI-CLS assay; details: Cancer cell lines
# [8] = Growth inhibition of human ovarian cancer cell by NCI-CLS assay; details: Cancer cell lines; for CC50: read-out: LC50 (the source's name)
# [9] = Growth inhibition of human leukemia cell by NCI-CLS assay
SMILES,GI50 [1] [µM],TGI [1] [µM],CC50 [1] [µM],GI50 [2] [µM],TGI [2] [µM],GI50 [3] [µM],TGI [3] [µM],CC50 [3] [µM],GI50 [4] [µM],TGI [4] [µM],GI50 [5] [µM],TGI [5] [µM],GI50 [6] [µM],TGI [6] [µM],GI50 [7] [µM],TGI [7] [µM],GI50 [8] [µM],TGI [8] [µM],GI50 [9] [µM],TGI [9] [µM],also measured
CC(C)(C)c1cc(/C=C2/C(=O)Nc3cccc(Cl)c32)c(O)c(/C=C2/C(=O)Nc3cccc(Cl)c32)c1,3.6,15.8,56.2,3.5,15.1,2.9,9.3,36.3,2.4,11.5,2.2,10.2,2.3,11,2.2,6.2,2.2,15.8,2.8,46.8,LC50 [2]: 64.6 µM; CC50 [4]: 67.6 µM; CC50 [5]: 72.4 µM; CC50 [6]: 58.9 µM; LC50 [7]: 21.9 µM; CC50 [8]: 44.7 µM
COc1ccc2c(c1)/C(=C\c1cccc(/C=C3/C(=O)Nc4ccc(OC)cc43)c1)C(=O)N2,2.5,6.2,79.4,3,11,1.2,2.9,30.2,1.2,5,1.7,4.1,1.4,4.3,1.7,7.4,2.1,6.3,1,11.5,LC50 [2]: 85.1 µM; CC50 [5]: 25.7 µM; CC50 [6]: 29.5 µM; LC50 [7]: 83.2 µM; CC50 [8]: 95.5 µM
COc1ccc2c(c1)/C(=C\c1ccccc1/C=C1/C(=O)Nc3ccc(OC)cc31)C(=O)N2,21.4,79.4,,14.1,87.1,13.8,91.2,,7.8,,14.4,58.9,14.1,72.4,7.8,87.1,14.1,,5.4,,
O=C1Nc2cccc(Cl)c2/C1=C\c1ccc2ccc3ccc(/C=C4/C(=O)Nc5cccc(Cl)c54)nc3c2n1,9.5,58.9,97.7,25.7,79.4,13.2,42.7,61.7,14.4,70.8,3.8,31.6,7.4,34.7,3.9,30.9,6.2,30.9,1.1,30.2,CC50 [4]: 93.3 µM; CC50 [5]: 79.4 µM; CC50 [6]: 77.6 µM; LC50 [7]: 79.4 µM; CC50 [8]: 70.8 µM
COc1ccc2c(c1)/C(=C\c1cc(C(C)(C)C)cc(/C=C3/C(=O)Nc4ccc(OC)cc43)c1O)C(=O)N2,7.2,22.4,61.7,8.7,32.4,4.4,13.2,39.8,5.5,31.6,4.8,24.5,4.8,21.4,6.3,19.9,5.9,25.1,3.9,43.6,LC50 [2]: 69.2 µM; CC50 [4]: 63.1 µM; CC50 [5]: 72.4 µM; CC50 [6]: 66.1 µM; LC50 [7]: 53.7 µM; CC50 [8]: 61.7 µM
COc1ccc2c(c1)/C(=C\c1cc(OC)c(O)c(-c3cc(/C=C4/C(=O)Nc5ccc(OC)cc54)cc(OC)c3O)c1)C(=O)N2,20.9,95.5,,21.9,95.5,10.7,93.3,,13.8,,10.5,,6.8,87.1,10.5,75.9,15.1,,6.9,89.1,
Cc1[nH]c(C)c(/C=C2/C(=O)Nc3ccc(F)cc32)c1/C=C1/C(=O)Nc2ccc(F)cc21,9.1,32.4,75.9,7.8,25.1,5.1,18.2,52.5,4.9,22.4,7.9,20.4,3.4,13.2,5,17,8.1,25.7,2.4,9.1,LC50 [2]: 74.1 µM; CC50 [4]: 70.8 µM; CC50 [5]: 44.7 µM; CC50 [6]: 46.8 µM; LC50 [7]: 53.7 µM; CC50 [8]: 72.4 µM; LC50 [9]: 37.1 µM
O=C1Nc2cccc(I)c2/C1=C\c1cccc(/C=C2/C(=O)Nc3cccc(I)c32)n1,0.9,2.6,8.3,1.3,5,1,3.2,13.5,0.8,4.4,0.6,2.2,1.2,4,0.5,1.9,1.1,5.6,0.9,30.9,LC50 [2]: 21.9 µM; CC50 [4]: 21.9 µM; CC50 [5]: 24 µM; CC50 [6]: 13.8 µM; LC50 [7]: 7.6 µM; CC50 [8]: 22.4 µM
CC[C@]1(O)C[C@H]2CN(CCc3c([nH]c4ccccc34)[C@@](C(=O)OC)(c3cc4c(cc3OC)N(C=O)[C@H]3[C@@](O)(C(=O)OC)[C@H](OC(C)=O)[C@]5(CC)C=CCN6CC[C@]43[C@@H]65)C2)C1 [VINCRISTINE SULFATE],0.3,19.9,,0.2,15.8,0.2,7.9,,0.3,7.9,0.1,6.3,0.1,6.3,0.1,4,0.3,19.9,0.1,15.8,
COc1ccc(OC)c2c1NC(=O)/C2=C/c1cccc(/C=C2/C(=O)Nc3c(OC)ccc(OC)c32)n1,0.7,2.5,18.2,0.9,18.6,0.7,2.2,13.5,0.7,17.4,0.5,3.4,0.7,3.6,0.5,1.9,0.8,11.2,0.4,8.7,LC50 [2]: 85.1 µM; CC50 [4]: 60.3 µM; CC50 [5]: 25.1 µM; CC50 [6]: 21.9 µM; LC50 [7]: 22.4 µM; CC50 [8]: 27.5 µM; LC50 [9]: 64.6 µM
O=C1Nc2c(ccc3ccccc23)/C1=C\c1cccc(/C=C2/C(=O)Nc3c2ccc2ccccc32)n1,17,41.7,79.4,24,57.5,13.8,38,77.6,17.8,69.2,21.9,81.3,15.8,49,14.4,44.7,19,56.2,1.5,10,LC50 [2]: 89.1 µM; CC50 [4]: 97.7 µM; CC50 [6]: 85.1 µM; LC50 [7]: 83.2 µM; CC50 [8]: 91.2 µM; LC50 [9]: 77.6 µM
COc1ccc2c(c1)/C(=C\c1ccc3ccc4ccc(/C=C5/C(=O)Nc6ccc(OC)cc65)nc4c3n1)C(=O)N2,3.3,19.5,97.7,3.2,28.2,3.2,11.5,74.1,3.9,75.9,3.7,36.3,3.8,,2.8,16.2,5.5,58.9,3,60.3,LC50 [2]: 75.9 µM
O=C1Nc2cccc(Cl)c2/C1=C\c1cccc(/C=C2/C(=O)Nc3cccc(Cl)c32)c1,2.3,9.3,36.3,4.2,20.4,3.2,16.6,34.7,2.4,13.2,1.5,16.2,1.7,13.5,2.6,14.8,2.7,14.4,1.3,9.8,LC50 [2]: 42.7 µM; CC50 [4]: 42.7 µM; CC50 [5]: 50.1 µM; CC50 [6]: 38.9 µM; LC50 [7]: 33.1 µM; CC50 [8]: 41.7 µM; LC50 [9]: 27.5 µM
O=Cc1cccc(/C=C2/C(=O)Nc3c2ccc2ccccc32)n1,10.7,26.9,74.1,14.4,37.1,11.5,35.5,72.4,6.2,45.7,5.7,33.1,11.2,33.9,9.5,44.7,8.7,30.9,2.5,7.6,LC50 [2]: 85.1 µM; CC50 [4]: 79.4 µM; CC50 [5]: 97.7 µM; CC50 [6]: 91.2 µM; LC50 [7]: 83.2 µM; CC50 [8]: 72.4 µM
